Results: patent US7858738B2, “Synthetic human peptides and pharmaceutical compositions comprising them for the treatment of systemic lupus erythematosus” (Yeda Research and Development Co., Ltd., priority 2001, dated 2010)

Assays:
[1] = tested on: lymph node cultures of BALB/c mice; test: Cytokines in supernatants of 16/6Id-stimulated lymph node cultures of BALB/c mice with experimental SLE; format: in vivo; settings: after 10 treatment injections
Procedure: Induction and treatment of experimental SLE. In order to induce experimental SLE, BALB/c mice were immunized with 1-2 μg of the human mAb 16/6Id and boosted 3 weeks later. For the prevention of experimental SLE, mice were given hCDR1 or hCDR3 (mCDR1 or revmCDR1 as control peptide in Example 12) intravenously (i.v.) or s.c. concomitant with the immunization, and were injected weekly thereafter for 5 weeks. Treatment of an established disease started three and a half months following disease induction with the 16/6Id, when clinical manifestations were already observed. In Example 12, mice received 10 weekly injections (i.v. or s.c.) of mCDR1 or revmCDR1 at a dose of 100 μg/mouse. Prevention and treatment of SLE-like disease in (NZB×NZW)F1 mice with the hCDR1 or mCDR1 peptide. For prevention of SLE, mice at the age of 2 months, before disease manifestations are observed, were injected s.c. with hCDR1 (or mCDR1 in Example 12, 250 μg/mouse) once a week for 10 weeks. To treat an established disease, mice at the age of 5-7 months were injected with hCDR1 (in Example 12, mCDR1 s.c., 250 μg/mouse) once a week for 10 weeks. Proliferative Responses. PBL were isolated from heparinized venous blood by Ficoll-Hypaque (Pharmacia) density-gradient centrifugation. All assays were performed, in triplicate, in flat-bottomed microtiter plates (Falcon, Becton Dickinson, Oxmard, Calif., USA) in which 2×10^5 PBL were cultured in enriched RPMI-1640 as described (Dayan et al., 2000). The PBL were exposed to various concentrations (0.1-40 μg/well) of the human anti-DNA 16/6Id mAb with and without the addition of the various CDR-based peptides at a concentration of at least 10-fold excess over that of the 16/6Id. Phytohemagglutinin (PHA; 2 μg/well) was used as a control for culture conditions at each experiment. The cultures were incubated in 7.5% CO2 at 37° C. for 6 days. Eighteen hours before the cells were harvested, [^3H]-thymidine (0.5μ Ci of 5 Ci/mmol) (Nuclear Research Center, Negev, Israel) was added to all cultures. Results are expressed as the mean thymidine incorporation in counts per minute (CPM) of triplicate culture±SD, or as stimulation index (S.I.; the ratio of mean CPM at the optimal concentration of the human 16/6Id to the mean CPM in the presence of medium alone). […] TGF-β was determined by an ELISA. […] The substrate solution used was TMB color Reagent (Helix Diagnostics, West Sacramento, Calif.), and enzyme activity was evaluated by using 570- and 630-nm filters. […] Proteinuria was measured semiquantitatively by using Combistix kit (Ames Division, Bayer Diagnostics, Newbury, U.K.). White blood cells (WBC, for leukopenia) were counted after a 10-fold dilution of heparinized blood in distilled water containing 1% acetic acid (vol/vol). […]

(NZB×NZW)F1 mice = test: Treatment of established SLE-like disease in (NZB×NZW)F1 mice; format: in vivo; settings: for anti-dsDNA autoantibody O.D. values: sera 1:1250, end of treatment, PBS-treated 0.586±0.1
Procedure: Induction and treatment of experimental SLE. In order to induce experimental SLE, BALB/c mice were immunized with 1-2 μg of the human mAb 16/6Id and boosted 3 weeks later. For the prevention of experimental SLE, mice were given hCDR1 or hCDR3 (mCDR1 or revmCDR1 as control peptide in Example 12) intravenously (i.v.) or s.c. concomitant with the immunization, and were injected weekly thereafter for 5 weeks. Treatment of an established disease started three and a half months following disease induction with the 16/6Id, when clinical manifestations were already observed. In Example 12, mice received 10 weekly injections (i.v. or s.c.) of mCDR1 or revmCDR1 at a dose of 100 μg/mouse. Prevention and treatment of SLE-like disease in (NZB×NZW)F1 mice with the hCDR1 or mCDR1 peptide. For prevention of SLE, mice at the age of 2 months, before disease manifestations are observed, were injected s.c. with hCDR1 (or mCDR1 in Example 12, 250 μg/mouse) once a week for 10 weeks. To treat an established disease, mice at the age of 5-7 months were injected with hCDR1 (in Example 12, mCDR1 s.c., 250 μg/mouse) once a week for 10 weeks. Proliferative Responses. PBL were isolated from heparinized venous blood by Ficoll-Hypaque (Pharmacia) density-gradient centrifugation. All assays were performed, in triplicate, in flat-bottomed microtiter plates (Falcon, Becton Dickinson, Oxmard, Calif., USA) in which 2×10^5 PBL were cultured in enriched RPMI-1640 as described (Dayan et al., 2000). The PBL were exposed to various concentrations (0.1-40 μg/well) of the human anti-DNA 16/6Id mAb with and without the addition of the various CDR-based peptides at a concentration of at least 10-fold excess over that of the 16/6Id. Phytohemagglutinin (PHA; 2 μg/well) was used as a control for culture conditions at each experiment. The cultures were incubated in 7.5% CO2 at 37° C. for 6 days. Eighteen hours before the cells were harvested, [^3H]-thymidine (0.5μ Ci of 5 Ci/mmol) (Nuclear Research Center, Negev, Israel) was added to all cultures. Results are expressed as the mean thymidine incorporation in counts per minute (CPM) of triplicate culture±SD, or as stimulation index (S.I.; the ratio of mean CPM at the optimal concentration of the human 16/6Id to the mean CPM in the presence of medium alone). A S.I.≧2 was considered a positive response (Dayan et al., 2000). Inhibition (the ratio of mean CPM in the presence of the 16/6Id and various CDR-based peptides to the mean CPM with the 16/6Id without the CDR-based peptide) above 50% was considered positive. Induction of Cytokine Production. Mice that were immunized with the human 16/6Id mAb and either treated or not with the CDR-based peptide, were killed at different periods during or after treatment with the peptide. Splenocytes and lymph node cells (LNC) were harvested and incubated (5×10^6/ml) in the presence of the 16/6Id. Supernatants were collected after 48 and 72 h. Assessment of Cytokines in the Supernatants. Supernatants were collected 48 hours following the initiation of the cultures and stored at −70° C. Measurements of IL-2, IL-10, IFN-γ, and TNF-α were performed by ELISA by using the relevant standards, capture and detecting Abs (Pharmingen) according to the manufacturer's instructions. TGF-β was determined by an ELISA. Briefly, plates were coated with the recombinant human TGF-β1 sRIII/Fc chimera (R & D Systems Inc., Minneapolis, Minn., USA), and the second Ab used was the biotinylated anti-human TGF-β1 antibody (R & D Systems Inc.). The substrate solution used was TMB color Reagent (Helix Diagnostics, West Sacramento, Calif.), and enzyme activity was evaluated by using 570- and 630-nm filters. Detection of SLE-Associated Clinical and Pathological Manifestations. Proteinuria was measured semiquantitatively by using Combistix kit (Ames Division, Bayer Diagnostics, Newbury, U.K.). White blood cells (WBC, for leukopenia) were counted after a 10-fold dilution of heparinized blood in distilled water containing 1% acetic acid (vol/vol). […]

SJL-derived LNCs = test: In vivo inhibition of proliferation of LNC of SJL mice immunized with mCDR3; settings: maximum % inhibition; 200 μg s.c. in PBS concomitant with immunization; LNC tested ten days later
Procedure: To this end, BALB/c and SJL mice were immunized with mCDR1 and mCDR3, respectively. The immunizing murine peptides were injected (10 μg/mouse) in CFA intradermally in the hind footpads. Concomitant with the immunization, groups of BALB/c mice were injected subcutaneously (s.c.) with 200 μg in PBS of hCDR1 and groups of SJL mice were similarly injected with hCDR3. Ten days after the immunization, mice were sacrificed and their lymph nodes were harvested and the cells were tested for their ability to proliferate following triggering with the immunizing peptides. Briefly, LNCs of immunized mice (0.5×10^6/well) were cultured (in triplicates) in the presence of different concentrations (1-20 μg/well) of the murine immunizing peptides in enriched RPMI-1640 medium supplemented with 1% normal mouse serum. Following four days of incubation, ^3H-thymidine was added for additional 16 hours. Cells were then harvested and radioactivity was counted using a β-counter.
The inhibition was calculated based on the proliferation of LNCs of mice that were not treated with the inhibitory peptides hCDR1 and hCDR3. It can be seen that hCDR1 and hCDR3 were capable of inhibiting the proliferative responses to the immunizing murine CDR peptides.

[2] = age 7 months, 10 weeks, 100 μg/mouse or 300 μg/mouse

GYYWSWIRQPPGKGEEWIG (Human) [hCDR1, 19-mer peptide based on the CDR1 of the heavy chain of the human 16/6Id mAb]
levels of TGF-β ([1]; FIG. 15D, 15E (spleen cells)): up-regulated | INF-γ in supernatants of 16/6Id stimulated lymph node cultures ([1]; both doses (200 and 300 μg), FIG. 15A): down regulated | TNF-α in supernatants of 16/6Id stimulated lymph node cultures ([1]; both doses (200 and 300 μg), FIG. 15B): down regulated | IL-10 in supernatants of 16/6Id stimulated lymph node cultures ([1]; both doses (200 and 300 μg), FIG. 15C): down regulated | anti-dsDNA autoantibody O.D. values ((NZB×NZW)F1 mice; 50 μg/mouse s.c. weekly for 10 weeks from age 5 and a half months): 0.27±0.1 O.D. | number and intensity of immune complexes in kidney sections ((NZB×NZW)F1 mice; 100 μg dose, mice sacrificed at 9 months, FIGS. 11A-11D): reduced the number of immune complexes as well as their intensity | anti-dsDNA autoantibody O.D. values ((NZB×NZW)F1 mice; 100 μg/mouse s.c. weekly for 10 weeks from age 5 and a half months): 0.37±0.1 O.D. | anti-dsDNA autoantibody O.D. values ((NZB×NZW)F1 mice; 200 μg/mouse s.c. weekly for 10 weeks from age 5 and a half months): 0.29±0.1 O.D. | Proteinuria g/L ± SEM ((NZB×NZW)F1 mice; 300 μg/mouse s.c. weekly for 10 weeks at the age of 7 months, untreated 4.80 ± 2.56): 1.08 ± 0.38 g/L | Proteinuria g/L ± SEM ((NZB×NZW)F1 mice; 300 μg/mouse, age 7 months, following treatment No 5, untreated 2.65 ± 1.76): 0.61 ± 0.23 g/L | Proteinuria g/L ± SEM ((NZB×NZW)F1 mice; 300 μg/mouse, age 7 months, following treatment No 7, untreated 3.89 ± 2.73): 0.65 ± 0.32 g/L | Proteinuria g/L ± SEM ((NZB×NZW)F1 mice; 300 μg/mouse, age 7 months, following treatment No 9, untreated 7.55 ± 3.95): 1.02 ± 0.39 g/L | Immune Complex Deposits ± SEM ((NZB×NZW)F1 mice; 300 μg/mouse, age 7 months, intensity 0=no ICD to 3=severe and extremely intense ICD, untreated 2.57 ± 0.29, p = 0.035): 1.44 ± 0.41 | Proteinuria g/L ± SEM ((NZB×NZW)F1 mice; 400 μg/mouse at the age of 6 months, untreated 4.99 ± 2.53): 0.77 ± 0.32 g/L | Immune Complex Deposits ± SEM ((NZB×NZW)F1 mice; 400 μg/mouse, age 6 months, intensity score 0-3, untreated 2 ± 0.29, p = 0.05): 1.42 ± 0.19 | anti-DNA antibody titers in sera ((NZB×NZW)F1 mice; 7-month old mice, 300 μg s.c. weekly for 10 weeks): mild reduction | anti-dsDNA autoantibody titers ((NZB×NZW)F1 mice; 50, 100 and 200 μg/mouse s.c. weekly for 10 weeks from age 5 and a half months): moderate reduction | anti-DNA autoantibody titers ((NZB×NZW)F1 mice; [2]): moderate reduction | proteinuria in comparison to the PBS-treated group ((NZB×NZW)F1 mice; [2]): reduction | kidney disease ((NZB×NZW)F1 mice; age 7 months, 10 weeks, 100 or 300 μg/mouse, more significant effect with 300 μg): ameliorated | kidney disease ((NZB×NZW)F1 mice; ten-week treatment, 50 μg dose less efficient than 100 and 200 μg): reduced significantly

YYCARGLLRGGWNDVDYYGMDV (Human) [hCDR3, peptide based on the CDR3 of the heavy chain of the human 16/6Id mAb]
% Inhibition of the proliferation of SJL-derived LNCs to mCDR3 (SJL-derived LNCs): 55%
